# Measurements published in US20110015225A1, “Heterocyclic compound” (Takeda Pharmaceutical Company Limited, priority 2008, published 2011).
# Molecular target: MCH receptor (SLC-1) (UniProt Q99705)
# Assay: MCH receptor antagonistic activity using GTPγS binding assay
# Type: biochemical, human
# Conditions: [35S]-GTPγS binding, membrane fractions of SLC-1 expression CHO cells, 3×10^−10 M MCH, 25° C. 1 hr; read-out: Inhibitory Activity (IC50 value: nM)
# Experimental: Using human SLC-1 expression CHO cell clone 57 and rat SLC-1 expression CHO cell clone 44 described in WO01/82925, membrane fractions of SLC-1 expression CHO cells were prepared by the following method. In phosphate buffered saline (pH 7.4) supplemented with 5 mM EDTA (ethylenediaminetetraacetic acid) were suspended human and rat SLC-1 expression CHO cells (1×10^8) and centrifuged. Homogenate buffer (10 ml, 10 mM […], 5 mM EDTA, pH 7.5) was added to the pellets of the cells and, using Polytron Homogenizer, the mixture was homogenated. The supernatant obtained after centrifugation at 400×g for 15 min was further centrifuged at 100,000×g for 1 hr to give precipitate of the membrane fraction. The precipitate was suspended in 2 ml of an assay buffer [50 mM Tris-HCl (pH 7.5), 1 mM EDTA, 0.1% BSA (bovine serum albumin), 10 mM MgCl2, 100 mM NaCl, 1 μM GDP (guanosine 5′-diphosphate), 0.25 mM PMSF (phenylmethylsulfonyl fluoride), […]] and centrifuged at 100,000×g for 1 hr. The membrane fraction recovered as precipitate was suspended again in 20 ml of an assay buffer, and after dispensing, preserved at −80° C. and used upon thawing each time when in use.
# The MCH receptor antagonistic activity of the test compound was determined as follows. The membrane fractions of SLC-1 expression CHO cells (171 μl) diluted with an assay buffer was dispensed to a polypropylene 96 well plate and 3×10^−10 M MCH (2 μl) diluted with DMSO solution, test compound solution (2 μl) diluted to various concentrations and [^35S]-Guanosine 5′-(γ-thio)triphosphate (25 μl, Daiichi Pure Chemicals Co., Ltd.) were respectively added (cellular membrane final concentration: 20 μg/ml, [^35S]-Guanosine 5′-(γ-thio)triphosphate final concentration: 0.33 nM). The reaction mixture was reacted at 25° C. for 1 hr with stirring, suction filtered with a glass filter (GF-C) and washed 3 times with a wash solution (300 μl, 50 mM Tris-HCl buffer, pH 7.5). Liquid scintillator ([…]) was added to the glass filter and the residual radioactivity was determined by a liquid scintillation counter.
# Binding inhibition (%)=(radioactivity upon addition of test compound and MCH−radioactivity upon addition of DMSO solution)/(radioactivity upon addition of MCH−radioactivity upon addition of DMSO solution)×100
# From the binding inhibition (%), IC50 of the test compound was calculated.
row,Compound,IC50 [nM]
1,"Cc1c(NC(=O)c2ccc(OCC3CC3)cc2)ccc2cc(C(C)NCCCS(C)(=O)=O)cnc12 (stereo not drawn) [Ex. 3, 4-(cyclopropylmethoxy)-N-[8-methyl-3-(1-{[3-(methylsulfonyl)propyl]amino}ethyl)quinolin-7-yl]benzamide]",2.2
2,"Cc1c(NC(=O)c2ccc(OCC3CC3)cc2)ccc2cc(CNCC(C)(C)CS(C)(=O)=O)cnc12 [Ex. 4, 4-(cyclopropylmethoxy)-N-[3-({[2,2-dimethyl-3-(methylsulfonyl)propyl]amino}methyl)-8-methylquinolin-7-yl]benzamide]",2.8
3,"Cc1c(NC(=O)c2ccc(OCC3CC3)cc2)ccc2cc(CNCCNS(C)(=O)=O)cnc12 [Ex. 6, 4-(cyclopropylmethoxy)-N-{8-methyl-3-[({2-[(methylsulfonyl)amino]ethyl}amino)methyl]quinolin-7-yl}benzamide]",4
4,"Cc1c(NC(=O)c2ccc(OCC3CC3)cc2)ccc2cc(CNC3CCN(S(C)(=O)=O)CC3)cnc12 [Ex. 8, 4-(cyclopropylmethoxy)-N-[8-methyl-3-({[1-(methylsulfonyl)piperidin-4-yl]amino}methyl)quinolin-7-yl]benzamide]",3.9
5,"Cc1c(NC(=O)c2ccc(OCC3CC3)cc2)ccc2cc(CNCC3CCS(=O)(=O)CC3)cnc12 [Ex. 16, 4-(cyclopropylmethoxy)-N-[3-({[(1,1-dioxidotetrahydro-2H-thiopyran-4-yl)methyl]amino}methyl)-8-methylquinolin-7-yl]benzamide]",1.8
6,"Cc1c(NC(=O)c2ccc(OCCC3CC3)cc2)ccc2cc(CNCCCS(C)(=O)=O)cnc12 [Ex. 18, 4-(2-cyclopropylethoxy)-N-[8-methyl-3-({[3-(methylsulfonyl)propyl]amino}methyl)quinolin-7-yl]benzamide]",1.1
7,"Cc1c(NC(=O)c2ccc(OCCC3CC3)cc2F)ccc2cc(CNC3CC[S+]([O-])CC3)cnc12 (stereo not drawn) [Ex. 24, 4-(2-cyclopropylethoxy)-2-fluoro-N-(8-methyl-3-{[(trans-1-oxidotetrahydro-2H-thiopyran-4-yl)amino]methyl}quinolin-7-yl)benzamide]",1.5
8,"Cc1c(NC(=O)c2ccc(OCCC3CC3)cc2F)ccc2cc(CNC3CC[S+]([O-])CC3)cnc12 (stereo not drawn) [Ex. 25, 4-(2-cyclopropylethoxy)-2-fluoro-N-(8-methyl-3-{[cis-1-oxidotetrahydro-2H-thiopyran-4-yl)amino]methyl}quinolin-7-yl)benzamide]",1.2
9,"Cc1c(NC(=O)c2ccc(OCC3CC3)cc2)ccc2cc([C@@H](C)NC3CC[S+]([O-])CC3)cnc12 (stereo partly drawn) [Ex. 30, 4-(cyclopropylmethoxy)-N-(8-methyl-3-{(1R)-1-[cis-(1-oxidotetrahydro-2H-thiopyran-4-yl)amino]ethyl}quinolin-7-yl)benzamide]",3.9
10,"Cc1c(NC(=O)c2ccc(OCC3CC3)cc2)ccc2cc(CNC3CCS(=O)(=O)CC3)cnc12 [Ex. 31, 4-(cyclopropylmethoxy)-N-(3-{[(1,1-dioxidotetrahydro-2H-thiopyran-4-yl)amino]methyl}-8-methylquinolin-7-yl)benzamide]",5.1
11,"Cc1c(NC(=O)c2ccc(OCC3CC3)cc2)ccc2cc(CNC3CC[S+]([O-])CC3)cnc12 (stereo not drawn) [Ex. 33, 4-(cyclopropylmethoxy)-N-(8-methyl-3-{[(cis-1-oxidotetrahydro-2H-thiopyran-4-yl)amino]methyl}quinolin-7-yl)benzamide]",4.1
12,"Cc1c(NC(=O)c2ccc(OCC3CC3)cc2F)ccc2cc(CNC3CC[S+]([O-])CC3)cnc12 (stereo not drawn) [Ex. 35, 4-(cyclopropylmethoxy)-2-fluoro-N-(8-methyl-3-{[(trans-1-oxidotetrahydro-2H-thiopyran-4-yl)amino]methyl}quinolin-7-yl)benzamide]",5.6

# Results, then the molecule that gave them:
row,IC50 [nM],Compound
1,2.3,"Cc1c(NC(=O)c2ccc(OCC3CC3)cc2)ccc2cc(CNCCCS(C)(=O)=O)cnc12 [Ex. 2, 4-(cyclopropylmethoxy)-N-[8-methyl-3-({[3-(methylsulfonyl)propyl]amino}methyl)quinolin-7-yl]benzamide]"
2,3.7,"Cc1c(NC(=O)c2ccc(OCC3CC3)cc2)ccc2cc(C(C)NCCNS(C)(=O)=O)cnc12 (stereo not drawn) [Ex. 7, 4-(cyclopropylmethoxy)-N-{8-methyl-3-[1-({2-[(methylsulfonyl)amino]ethyl}amino)ethyl]quinolin-7-yl}benzamide]"
3,2.8,"Cc1c(NC(=O)c2ccc(OCC3CC3)cc2)ccc2cc(CNCCCNS(C)(=O)=O)cnc12 [Ex. 13, 4-(cyclopropylmethoxy)-N-{8-methyl-3-[({3-[(methylsulfonyl)amino]propyl}amino)methyl]quinolin-7-yl}benzamide]"
4,3,"Cc1c(NC(=O)c2ccc(OCC3CC3)cc2)ccc2cc(CNCC3CCN(S(C)(=O)=O)CC3)cnc12 [Ex. 14, 4-(cyclopropylmethoxy)-N-{8-methyl-3-[({[1-(methylsulfonyl)piperidin-4-yl]methyl}amino)methyl]quinolin-7-yl}benzamide]"
5,5.6,"Cc1c(NC(=O)c2ccc(OCC3CC3)cc2)ccc2cc(CNCC3(O)CCS(=O)(=O)CC3)cnc12 [Ex. 15, 4-(cyclopropylmethoxy)-N-[3-({[(4-hydroxy-1,1-dioxidotetrahydro-2H-thiopyran-4-yl)methyl]amino}methyl)-8-methylquinolin-7-yl]benzamide]"
6,1.4,"Cc1c(NC(=O)c2ccc(OCCC3CC3)cc2)ccc2cc(CNC3CCS(=O)(=O)CC3)cnc12 [Ex. 20, 4-(2-cyclopropylethoxy)-N-(3-{[(1,1-dioxidotetrahydro-2H-thiopyran-4-yl)amino]methyl}-8-methylquinolin-7-yl)benzamide]"
7,2.7,"Cc1c(NC(=O)c2ccc(OCCC3CC3)cc2)ccc2cc(CNC3CC[S+]([O-])CC3)cnc12 (stereo not drawn) [Ex. 21, 4-(2-cyclopropylethoxy)-N-(8-methyl-3-{[(trans-1-oxidotetrahydro-2H-thiopyran-4-yl)amino]methyl}quinolin-7-yl)benzamide]"
8,1.8,"Cc1c(NC(=O)c2ccc(OCCC3CC3)cc2)ccc2cc(CNC3CC[S+]([O-])CC3)cnc12 (stereo not drawn) [Ex. 22, 4-(2-cyclopropylethoxy)-N-(8-methyl-3-{[(cis-1-oxidotetrahydro-2H-thiopyran-4-yl)amino]methyl}quinolin-7-yl)benzamide]"
9,1.5,"Cc1c(NC(=O)c2ccc(OCCC3CC3)cc2F)ccc2cc(CNC3CCS(=O)(=O)CC3)cnc12 [Ex. 23, 4-(2-cyclopropylethoxy)-N-(3-{[(1,1-dioxidotetrahydro-2H-thiopyran-4-yl)amino]methyl}-8-methylquinolin-7-yl)-2-fluorobenzamide]"
10,4.6,"Cc1c(NC(=O)c2ccc(OCC3CC3)cc2)ccc2cc(CNCCCC[S+](C)[O-])cnc12 (stereo not drawn) [Ex. 26, 4-(cyclopropylmethoxy)-N-[8-methyl-3-({[4-(methylsulfinyl)butyl]amino}methyl)quinolin-7-yl]benzamide]"
11,1.6,"Cc1c(NC(=O)c2ccc(OCC3CC3)cc2)ccc2cc(CNCCCCS(C)(=O)=O)cnc12 [Ex. 27, 4-(cyclopropylmethoxy)-N-[8-methyl-3-({[4-(methylsulfonyl)butyl]amino}methyl)quinolin-7-yl]benzamide]"
12,4.6,"Cc1c(NC(=O)c2ccc(OCC3CC3)cc2)ccc2cc(C(C)NC3CCS(=O)(=O)CC3)cnc12 (stereo not drawn) [Ex. 28, 4-(cyclopropylmethoxy)-N-(3-{1-[(1,1-dioxidotetrahydro-2H-thiopyran-4-yl)amino]ethyl}-8-methylquinolin-7-yl)benzamide]"
13,6.5,"Cc1c(NC(=O)c2ccc(OCC3CC3)cc2)ccc2cc(CNC3CC[S+]([O-])CC3)cnc12 (stereo not drawn) [Ex. 32, 4-(cyclopropylmethoxy)-N-(8-methyl-3-{[(trans-1-oxidotetrahydro-2H-thiopyran-4-yl)amino]methyl}quinolin-7-yl)benzamide]"
14,2.7,"Cc1c(NC(=O)c2ccc(OCC3CC3)cc2F)ccc2cc(CNC3CCS(=O)(=O)CC3)cnc12 [Ex. 34, 4-(cyclopropylmethoxy)-N-(3-{[(1,1-dioxidotetrahydro-2H-thiopyran-4-yl)amino]methyl}-8-methylquinolin-7-yl)-2-fluorobenzamide]"
15,3.4,"Cc1c(NC(=O)c2ccc(OCC3CC3)cc2F)ccc2cc(CNC3CC[S+]([O-])CC3)cnc12 (stereo not drawn) [Ex. 36, 4-(cyclopropylmethoxy)-2-fluoro-N-(8-methyl-3-{[(cis-1-oxidotetrahydro-2H-thiopyran-4-yl)amino]methyl}quinolin-7-yl)benzamide]"
